This note sets out measurements from US9902696B2, “1,4-substituted piperidine derivatives” (Cephalon, Inc., priority 2015, dated 2018).

Each structure is given as a SMILES string. Counter-ions that a name gives are not always drawn.

The target in one experiment is T1, recombinant human baculovirus-expressed GST-tagged FASN (Homo sapiens, UniProt P49327).
T1 construct: GST
T1 sequence (P49327 whole entry): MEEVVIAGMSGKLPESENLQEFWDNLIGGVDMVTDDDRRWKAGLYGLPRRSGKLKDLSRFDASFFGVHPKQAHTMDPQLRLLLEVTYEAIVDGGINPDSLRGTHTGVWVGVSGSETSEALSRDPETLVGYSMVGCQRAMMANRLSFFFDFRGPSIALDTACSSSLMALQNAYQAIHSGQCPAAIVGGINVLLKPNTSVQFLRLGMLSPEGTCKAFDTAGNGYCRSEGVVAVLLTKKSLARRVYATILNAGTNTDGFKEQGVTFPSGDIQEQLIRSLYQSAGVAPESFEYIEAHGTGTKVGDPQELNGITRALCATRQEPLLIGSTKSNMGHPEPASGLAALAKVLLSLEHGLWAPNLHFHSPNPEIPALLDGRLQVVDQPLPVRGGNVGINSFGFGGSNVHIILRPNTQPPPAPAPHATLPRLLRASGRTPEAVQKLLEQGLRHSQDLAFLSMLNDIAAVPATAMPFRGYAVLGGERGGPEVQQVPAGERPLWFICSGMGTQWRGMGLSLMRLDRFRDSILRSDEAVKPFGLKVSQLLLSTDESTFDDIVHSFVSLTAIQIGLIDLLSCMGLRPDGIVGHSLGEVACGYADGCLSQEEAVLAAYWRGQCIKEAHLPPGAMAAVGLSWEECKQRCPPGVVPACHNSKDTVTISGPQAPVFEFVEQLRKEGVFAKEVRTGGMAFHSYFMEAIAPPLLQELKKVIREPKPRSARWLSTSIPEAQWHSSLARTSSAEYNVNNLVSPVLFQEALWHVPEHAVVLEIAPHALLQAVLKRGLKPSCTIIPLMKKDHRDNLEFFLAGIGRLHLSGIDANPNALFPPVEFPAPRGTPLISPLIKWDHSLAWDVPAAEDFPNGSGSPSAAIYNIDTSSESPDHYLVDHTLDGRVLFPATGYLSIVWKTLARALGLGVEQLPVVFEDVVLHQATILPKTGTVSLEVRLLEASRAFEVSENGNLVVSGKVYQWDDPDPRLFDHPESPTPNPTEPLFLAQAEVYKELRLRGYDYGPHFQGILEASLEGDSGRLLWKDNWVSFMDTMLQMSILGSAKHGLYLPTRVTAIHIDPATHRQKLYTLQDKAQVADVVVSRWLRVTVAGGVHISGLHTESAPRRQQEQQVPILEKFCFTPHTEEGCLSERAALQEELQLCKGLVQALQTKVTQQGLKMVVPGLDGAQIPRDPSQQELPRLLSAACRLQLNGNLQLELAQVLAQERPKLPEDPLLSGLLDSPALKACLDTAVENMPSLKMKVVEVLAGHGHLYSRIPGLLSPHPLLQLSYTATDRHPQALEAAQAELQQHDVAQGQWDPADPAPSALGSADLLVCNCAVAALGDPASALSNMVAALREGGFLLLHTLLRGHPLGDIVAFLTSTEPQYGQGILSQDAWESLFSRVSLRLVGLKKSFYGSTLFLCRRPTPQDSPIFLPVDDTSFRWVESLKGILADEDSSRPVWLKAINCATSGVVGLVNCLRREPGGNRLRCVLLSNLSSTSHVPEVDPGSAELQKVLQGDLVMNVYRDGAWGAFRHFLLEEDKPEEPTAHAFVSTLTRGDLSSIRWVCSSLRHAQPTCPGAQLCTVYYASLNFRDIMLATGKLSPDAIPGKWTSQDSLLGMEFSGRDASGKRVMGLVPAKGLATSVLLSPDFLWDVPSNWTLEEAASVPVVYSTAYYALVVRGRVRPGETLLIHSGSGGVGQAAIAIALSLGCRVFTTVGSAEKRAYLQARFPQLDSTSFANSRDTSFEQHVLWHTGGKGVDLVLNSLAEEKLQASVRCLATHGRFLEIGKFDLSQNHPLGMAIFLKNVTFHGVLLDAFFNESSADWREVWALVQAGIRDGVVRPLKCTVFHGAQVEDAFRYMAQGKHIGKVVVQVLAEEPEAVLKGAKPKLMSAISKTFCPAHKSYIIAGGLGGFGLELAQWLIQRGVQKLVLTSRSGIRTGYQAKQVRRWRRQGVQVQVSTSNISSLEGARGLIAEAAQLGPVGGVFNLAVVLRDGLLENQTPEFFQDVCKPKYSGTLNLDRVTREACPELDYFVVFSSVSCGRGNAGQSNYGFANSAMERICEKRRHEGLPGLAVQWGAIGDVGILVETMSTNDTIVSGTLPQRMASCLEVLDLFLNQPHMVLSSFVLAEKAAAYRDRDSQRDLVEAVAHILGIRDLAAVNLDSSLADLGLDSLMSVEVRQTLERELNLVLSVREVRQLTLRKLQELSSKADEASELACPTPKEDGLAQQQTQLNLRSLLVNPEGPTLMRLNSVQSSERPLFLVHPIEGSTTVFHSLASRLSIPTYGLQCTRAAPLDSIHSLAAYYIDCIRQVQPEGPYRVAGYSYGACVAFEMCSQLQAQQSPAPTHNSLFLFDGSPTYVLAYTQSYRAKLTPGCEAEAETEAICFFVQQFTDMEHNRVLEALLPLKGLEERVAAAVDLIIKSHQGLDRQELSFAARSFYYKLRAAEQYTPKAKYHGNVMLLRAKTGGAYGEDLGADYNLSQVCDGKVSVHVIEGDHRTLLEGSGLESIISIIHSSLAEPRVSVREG
As to the kind of experiment: FASN enzyme activity assay, fluorescence-based detection of CoA with CPM. The class given is biochemical. Conditions: 5 nM FASN, 150 μM NADPH, 10 μM acetyl-CoA, 25 μM malonyl-CoA, 90 minutes incubation; read-out: IC50 data for Additional Compounds of Formulae I-V(a): Activity. The method, boiled down: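 CoA product reacted with thiol-reactive CPM (diluted to 50 μM in 70% ethanol), read at 390/530 nm after 30 min. Preceding reaction: 90 min, 5 nM recombinant GST-FASN, 150 μM NADPH, 10 μM acetyl-CoA, 25 μM malonyl-CoA, pH 7.5 HEPES, 0.5% DMSO. IC50s fitted by nonlinear sigmoidal regression.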
With `Cc1c(-c2ccc(OC3CCN(C(=O)[C@@H]4CCCN4C)CC3)cc2)ccc2cccnc12` [Example 617, [(2S)-1-Methylpyrrolidin-2-yl]-[4-[4-(8-methyl-7-quinolyl)phenoxy]-1-piperidyl]methanone], the IC50 was in the range of 1000 to 10000 nM.

With `CCCONC(=O)N1CCC(Oc2ccc(-c3ccc4nccn4c3C)cc2)CC1` [Example 607, 4-[4-(5-Methylimidazo[1,2-a]pyridin-6-yl)phenoxy]-N-propoxy-piperidine-1-carboxamide], the IC50 was 1000 to 10000 nM.

`Cc1c(-c2ccc(OC3CCN(C(=O)OC4CCCOC4)CC3)cc2)ccc2cccnc12` (centres unmarked) [Example 557, Tetrahydropyran-3-yl 4-[4-(8-methyl-7-quinolyl)phenoxy]piperidine-1-carboxylate]: the IC50 was in the range of 1000 to 10000 nM.

In the case of `Cc1c(-c2ccc(OC3CCN(C(=O)OC4CCOCC4)CC3)cc2)ccc2cccnc12` [Example 556, Tetrahydropyran-4-yl 4-[4-(8-methyl-7-quinolyl)phenoxy]piperidine-1-carboxylate], the IC50 lay in the range of 1000 to 10000 nM.

For the compound `CONC(=O)N1CCC(Oc2ccc(-c3ccc4nccn4c3C)cc2)CC1` [Example 611, N-Methoxy-4-[4-(5-methylimidazo[1,2-a]pyridin-6-yl)phenoxy]piperidine-1-carboxamide], the IC50 lay within 1000 to 10000 nM.

As for `Cc1c(-c2ccc(OC3CCN(C(=O)N4CCN(C)CC4)CC3)cc2)ccc2cccnc12` [Example 533, (4-Methyllpiperazin-1-yl)-[4-[4-(8-methyl-7-quinolyl)phenoxy]-1-piperidyl]methanone, HCl], the IC50 lay within 1000 to 10000 nM.

Still in this experiment, the particulars now being: 5 nM FASN, 150 μM NADPH, 10 μM acetyl-CoA, 25 μM malonyl-CoA, 90 minutes incubation; read-out: IC50 data for Compounds of Formulae I-V/V(a): Activity.
Turning to `Cc1c(-c2ccc(O[C@@H]3CCN4C(=O)CC[C@H]4C3)cc2)ccc2cccnc12` (racemic) [Example 356, (±)-(7R,8aS)-7-(4-(8-Methylquinolin-7-yl)phenoxy)hexahydroindolizin-3(2H)-one], the IC50 lay within 1000 to 10000 nM.

In the case of `CCC(=O)N1CCC(Oc2ccc(-c3ccc4cncn4c3)cc2)CC1` [Example 299, 1-[4-(4-Imidazo[1,5-a]pyridin-6-yl-phenoxy)-piperidin-1-yl]-propan-1-one], the IC50 is 1000 to 10000 nM.

Turning to `CCC(=O)N1CCC(Oc2ccc(-c3cc(C)c4cccnc4c3)cc2)CC1` [Example 346, 1-(4-(4-(5-Methylquinolin-7-yl)phenoxy)piperidin-1-yl)propan-1-one, HCl], the IC50 lay within 100 to 999 nM.

For `Cc1c(-c2ccc(OC3CCN(C(=O)[C@H]4CCCO4)CC3)c(F)c2)cnc2ccccc12` [Example 230, {4-[2-Fluoro-4-(4-methylquinolin-3-yl)-phenoxy]-piperidin-1-yl}-(R)-tetrahydrofuran-2-yl-methanone], the IC50 was in the range of 1 to 99 nM.

For the compound `COc1ccc2ncc(-c3ccc(OC4CCN(C(=O)C5CC5)CC4)cc3)cc2c1` [Example 54, Cyclopropyl-{4-[4-(6-methoxyquinolin-3-yl)-phenoxy]-piperidin-1-yl}-methanone], the IC50 fell in the range of 100 to 999 nM.

`CCC(=O)N1CCC(Oc2ccc(-c3cnc4ccccc4c3OC)cc2)CC1` [Example 50, 1-{4-[4-(4-Methoxyquinolin-3-yl)-phenoxy]-piperidin-1-yl}-propan-1-one]: the IC50 was in the range of 100 to 999 nM.

For the compound `CNC(=O)N1CCC(Oc2ccc(-c3ccc4cccnc4c3OC)cc2)CC1` [Example 85, 4-[4-(8-Methoxyquinolin-7-yl)-phenoxy]-piperidine-1-carboxylic acid methylamide], the IC50 was 100 to 999 nM.

Regarding `O=C([C@H]1CCCO1)N1CCC(Oc2ccc(-c3cnc4ccccc4c3N3CCOCC3)cc2)CC1` [Example 238, {4-[4-(4-Morpholin-4-yl-quinolin-3-yl)-phenoxy]-piperidin-1-yl}-(R)-tetrahydrofuran-2-yl-methanone], the IC50 was in the range of 100 to 999 nM.

As for `CCC(=O)N1CCC(Sc2ccc(-c3cnc4ccccc4c3)cc2)CC1` [Example 518, 1-(4-((4-(Quinolin-3-yl)phenyl)thio)piperidin-1-yl)propan-1-one, HCl], the IC50 was 1 to 99 nM.

Take `COc1cc(-c2cnc3ccccc3c2)ccc1OC1CCN(C(=O)C2CC2)CC1` [Example 198, Cyclopropyl-[4-(2-methoxy-4-quinolin-3-yl-phenoxy)-piperidin-1-yl]-methanone]: the IC50 lay within 1000 to 10000 nM.

Turning to `Cc1c(-c2ccc(OC3CCN(C(=O)C4CC4)CC3)cc2)cnc2ccccc12` [Example 61], the IC50 was in the range of 1 to 99 nM.

Regarding `CN(C)CCNc1c(-c2ccc(OC3CCN(C(=O)[C@H]4CCCO4)CC3)cc2)ccc2cccnc12` [Example 329, (4-{4-[8-(2-Dimethylaminoethylamino)-quinolin-7-yl]-phenoxy}-piperidin-1-yl)-(R)tetrahydrofuran-2-yl-methanone], the IC50 was 1 to 99 nM.

For `O=C(C1CC1)N1CCC(Oc2ccc(-c3cnc4ccoc4c3)cc2)CC1` [Example 52, Cyclopropyl-[4-(4-furo[3,2-b]pyridin-6-yl-phenoxy)-piperidin-1-yl]-methanone], the IC50 is 1000 to 10000 nM.

As to `COc1cccc2ncc(-c3ccc(OC4CCN(C(=O)C5CC5)CC4)cc3)cc12` [Example 464, Cyclopropyl-{4-[4-(5-methoxyquinolin-3-yl)-phenoxy]-piperidin-1-yl}-methanone], the IC50 fell in the range of 1000 to 10000 nM.

For the compound `Cc1c(-c2ccc(OC3CCN(C(=O)C4(O)CC4)CC3)cc2)ccc2nccn12` [Example 309, (1-Hydroxycyclopropyl)-{4-[4-(5-methyl-imidazo[1,2-a]pyridin-6-yl)-phenoxy]-piperidin-1-yl}-methanone], the IC50 was in the range of 1 to 99 nM.

On to `Cc1ccoc1C(=O)N1CCC(Oc2ccc(-c3cnc4ccccc4c3)cc2)CC1` [Example 121, (3-Methylfuran-2-yl)-[4-(4-quinolin-3-yl-phenoxy)-piperidin-1-yl]-methanone, HCl], for which the IC50 was 1000 to 10000 nM.

Regarding `Cc1c(-c2ccc(OC3CCN(C(=O)C4CCC4)CC3)cc2)ccc2cccnc12` [Example 38], the IC50 is 1 to 99 nM.

Consider `CCC(=O)N1CCC(Oc2ccc(-c3cnc4ccccc4c3N3CCN(C)CC3)cc2)CC1` [Example 239, 1-(4-{4-[4-(4-Methylpiperazin-1-yl)-quinolin-3-yl]-phenoxy}-piperidin-1-yl)-propan-1-one], for which the IC50 lay in the range of 1000 to 10000 nM.

Turning to `CCC(=O)N1CCC(Oc2ccc(-c3ccc4cccnc4c3OCCN3CCCC3)cc2)CC1` [Example 173, 1-(4-{4-[8-(2-Pyrrolidin-1-yl-ethoxy)-quinolin-7-yl]-phenoxy}-piperidin-1-yl)-propan-1-one, HCl], the IC50 was in the range of 1000 to 10000 nM.

For the compound `O=C([C@H]1CCCO1)N1CCC(Oc2ccc(-c3ccc4cccnc4c3C3CC3)cc2)CC1` [Example 475, [4-[4-(8-Cyclopropyl-7-quinolyl)phenoxy]-1-piperidyl]-[(2R)-tetrahydrofuran-2-yl]methanone, HCl], the IC50 lay in the range of 1 to 99 nM.

On to `CCC(=O)N1CCC(Oc2ccc(-c3c(C)ccc4ncccc34)cc2)CC1` [Example 350, 1-(4-(4-(6-Methylquinolin-5-yl)phenoxy)piperidin-1-yl)propan-1-one HCl], for which the IC50 was in the range of 100 to 999 nM.

`COc1cc2cc(-c3ccc(OC4CCN(C(=O)C5CC5)CC4)cc3)ccc2cn1` [Example 416, Cyclopropyl-{4-[4-(3-methoxyisoquinolin-6-yl)-phenoxy]-piperidin-1-yl}-methanone]: the IC50 lay in the range of 100 to 999 nM.

Turning to `CCC(=O)N1CCC(C(=O)N(C)c2ccc(-c3ccc4cccnc4c3)cc2)CC1` [Example 150, 1-Propionyl-piperidine-4-carboxylic acid methyl-(4-quinolin-7-yl-phenyl)-amide], the IC50 was 100 to 999 nM.

Consider `COc1cc(OC2CCN(C(=O)C(C)C)CC2)ccc1-c1cnc2ccccc2c1` [Example 210, 1-[4-(3-Methoxy-4-quinolin-3-yl-phenoxy)-piperidin-1-yl]-2-methyl-propan-1-one], for which the IC50 was in the range of 1000 to 10000 nM.

For the compound `O=C1COC(C(=O)N2CCC(Oc3ccc(-c4cnc5ccccc5c4)cc3)CC2)C1` (centres unmarked) [Example 166, 5-[4-(4-Quinolin-3-yl-phenoxy)-piperidine-1-carbonyl]dihydrofuran-3-one], the IC50 was 1000 to 10000 nM.

For the compound `CCC(=O)N1CCC(Oc2ccc(-c3ccc4cccnc4c3C#N)cc2)CC1` [Example 330, 7-[4-(1-Propionyl-piperidin-4-yloxy)-phenyl]-quinoline-8-carbonitrile], the IC50 was in the range of 100 to 999 nM.

As to `CCC(=O)N1CCC(Oc2ccc(-c3ccc4cccnc4c3N(C)C)cc2)CC1` [Example 332, 1-{4-[4-(8-Dimethylaminoquinolin-7-yl)-phenoxy]-piperidin-1-yl}-propan-1-one], the IC50 was 1000 to 10000 nM.

On to `CCC(=O)N1CCC(Oc2ccc(-c3ccc4cccnc4c3OCCCOC)cc2)CC1` [Example 179, 1-[4-[4-[8-(3-Methoxypropoxy)-7-quinolyl]phenoxy]-1-piperidyl]propan-1-one, HCl], for which the IC50 was 100 to 999 nM.

Take `CCC(=O)N1CCC(Oc2ccc(-c3cnc4ccccc4c3)cc2C)CC1` [Example 212, 1-[4-(2-Methyl-4-quinolin-3-yl-phenoxy)-piperidin-1-yl]-propan-1-one]: the IC50 was in the range of 1000 to 10000 nM.

Take `Cc1c(-c2ccc(OC3CCN(C(=O)C(C)F)CC3)cc2)ccc2cccnc12` (centres unmarked) [Example 359, 2-Fluoro-1-{4-[4-(8-methylquinolin-7-yl)-phenoxy]-piperidin-1-yl}-propan-1-one, HCl]: the IC50 is 1 to 99 nM.

Regarding `CCC(=O)N1CCC(Oc2ccc(-c3ccc4sccc4c3)cc2)CC1` [Example 247, 1-[4-(4-Benzo[b]thiophen-5-yl-phenoxy)-piperidin-1-yl]-propan-1-one], the IC50 fell in the range of 100 to 999 nM.

Turning to `O=C(C1CC1)N1CCC(Oc2ccc(-c3ccc(OCc4ccccc4)cc3F)cc2)CC1` [Example 505, [4-(4′-Benzyloxy-2′-fluorobiphenyl-4-yloxy)-piperidin-1-yl]-cyclopropyl-methanone], the IC50 is 1000 to 10000 nM.
